Measurements: paper PMC9817974, “Pharmacokinetic Basis for Using Saliva Matrine Concentrations as a Clinical Compliance Monitoring in Antitumor B Chemoprevention Trials in Humans” (Cancers, 2022)
Where “and” joins values, the source holds several entries; their conditions need not be identical. Equal entries are not always repeated. Where two headings read alike, the source gives them in different places.

Assays:
[1] = Sample stability of ATB components (bench, freeze-thaw, short-term, long-term); assay type: physicochemical; conditions: in % (unit assumed)
Procedure: samples for calibration were prepared. The study and QC samples were prepared on the same day as the UPLC-MS/MS analysis was done.
Calibration curves were prepared the same way as described in section S1.2.2. The linearity of each calibration curve was determined by plotting the peak area ratio of Matr, Maac, Dict, and Frax to I.S. in plasma. […] The lower limit of […] was defined based on a signal-to-noise ratio of 10:1.
S1.2.4 Extraction recovery and matrix effect
The extraction recoveries of Matr, Maac, Dict, and Frax were determined by comparing the relative peak areas obtained from blank plasma spiked with analytes and those obtained from water spiked with the same amounts of analytes. Matrix effect was determined by comparing the peak areas of blank plasma extracts spikes with analytes and I.S. with those of the standard solutions dried and reconstituted with mobile phase. The quality control samples were prepared in plasma.
Bench work (25°C for 4 hours), short-term (-20°C for 7 days), long-term (-80°C for 4 months) and three freeze-thaw cycle stabilities were determined.

[2] = set-up: method as in Gao et al. [11]; conditions: blood/plasma ratio; ref Gao et al. [11]; cited from earlier work
[3] = Sample stability of ATB components (bench, freeze-thaw, short-term, long-term); assay type: physicochemical; conditions: in % (unit assumed); remark: listed apart in the source
[4] = Stability of ATB tablets (ICH storage conditions)
Procedure: Two independent batches of ATB tablets were tested according to International Conference on Harmonization (ICH) Guideline for long-term (12 months at 25 ± 2 °C/60 ± 5% RH), intermediate (6 months at 30 ± 2 °C/65 ± 5% RH), and accelerated (40 ± 2 °C/75 ± 5% RH) stability [12].

[5] = set-up: method as in ref [3] of Supplement S4 (Bui et al.); conditions: mice; ref [3] of Supplement S4 (Bui et al.); cited from earlier work
[6] = set-up: method as in Bui et al. [9]; conditions: ref Bui et al. [9]; cited from earlier work
[7] = set-up: method as in Gao et al. [11]; conditions: plasma; 1.2 g ATB (equal to 4.8 mg Matr); ref Gao et al. [11]; cited from earlier work
[8] = Single-dose oral pharmacokinetic study of ATB tablets in healthy human subjects (plasma and saliva, non-compartmental analysis); assay type: in vivo; conditions: for AUC(0-t) / Cmax / Tmax / half-life / Kp: both sexes, human, po; for Kp: saliva and plasma; for inter-subject variability of systemic exposure (AUC): n = 8
Procedure: In addition, in vivo correlation between plasma and saliva concentrations was determined as the secondary outcome.
The ratio of drug concentration in plasma and saliva were calculated using Equations (1) and (2). (1) RCmax=Cmax saliva/Cmax plasma (2) RAUC=AUC0–24 saliva/AUC0–24 plasma […]
S2.1. Human Pharmacokinetic Study Design
The study was conducted in two phases. Two self-volunteered subjects participated in the study […]
Participants refrained from consumption of […]
dosing blood and saliva samples were collected. Each participant received single-dose oral […]
saliva sample kit for salivary collection. Plasma samples were then collected by centrifugation of […]
hour post-administration. […]
administration. […] Throughout the […]
collected and saline lock was removed. Participants returned the next day morning for 24-hour […]
Participants fasted 8-12 hours before each

OCT1, OCT2 and OCT3 = test system: OCT1, OCT2 and OCT3; set-up: method as in PMID 33896325; conditions: read-out: Km of uptake by OCT1, OCT2 and OCT3; cited from earlier work
[9] = set-up: method as in PMID 33896325; conditions: cited from earlier work
[10] = average of 8 healthy volunteers, single oral dose 2400 mg ATB
[11] = average of 8 healthy volunteers, single oral dose 2400 mg ATB, plasma
[12] = average of 8 healthy volunteers, single oral dose 2400 mg ATB, saliva
[13] = individual subjects, single oral dose 2400 mg ATB (8 tablets)
[14] = individual subjects, single oral dose 2400 mg ATB (8 tablets), plasma
[15] = individual subjects, single oral dose 2400 mg ATB (8 tablets), saliva

For `O=C1CCC[C@@H]2[C@H]3CCCN4CCC[C@@H](CN12)[C@@H]34` [matrine], the “Stability, 3 cycles freeze-thaw” value ([1]; HQC concentration level) was 99.1 ± 6.7, the “Stability, Bench work (4 hrs, 25 oC)” value ([1]; HQC concentration level) was 103.1 ± 2.6 and the “Stability, Short-term (7 days, -20 oC)” value ([1]; HQC concentration level) was 88.3 ± 6.6. The “Stability, 3 cycles freeze-thaw” value ([1]; LOQ concentration level) was 109.6 ± 1.3, the “Stability, 3 cycles freeze-thaw” value ([1]; MQC concentration level) was 93.7 ± 3.4 and the “Stability, Bench work (4 hrs, 25 oC)” value ([1]; MQC concentration level) was 85.8 ± 8.9. The Rbp [2] was 0.97, the “Stability, Long-term (6 months, -80 oC)” value ([3]; HQC concentration level) was 94.6 ± 6.7 and the “Stability, Bench work (4 hrs, 25 oC)” value ([3]; LOQ concentration level) was 110.5 ± 18.0. For the same molecule, the “Stability, Long-term (6 months, -80 oC)” value ([3]; LOQ concentration level) was 96.2 ± 0.6, the “Stability, Short-term (7 days, -20 oC)” value ([3]; LOQ concentration level) was 86.6 ± 3.8 and the “Stability, Long-term (6 months, -80 oC)” value ([3]; MQC concentration level) was 105.8 ± 3.8. The “Stability, Short-term (7 days, -20 oC)” value ([3]; MQC concentration level) was 85.7 ± 8.7, the “remaining percentage in ATB tablets, Long term 3 months” value ([4]; 25 ± 2 °C/60 ± 5% RH) was 89.1 ± 2.7% and the “remaining percentage in ATB tablets, Long term 6 months” value ([4]; 25 ± 2 °C/60 ± 5% RH) was 93.9 ± 2.1%. For the same molecule, the “remaining percentage in ATB tablets, Long term 12 months” value ([4]; 25 ± 2 °C/60 ± 5% RH) was 89.6 ± 0.8%, the “remaining percentage in ATB tablets, Intermediate 3 months” value ([4]; 30 ± 2 °C/65 ± 5% RH) was 89.6 ± 0.5% and the “remaining percentage in ATB tablets, Intermediate 6 months” value ([4]; 30 ± 2 °C/65 ± 5% RH) was 92.1 ± 3.6%. For the same molecule, the “remaining percentage in ATB tablets, Accelerated term 3 months” value ([4]; 40 ± 2 °C/75 ± 5% RH) was 87.0 ± 5.0%, the “remaining percentage in ATB tablets, Accelerated term 6 months” value ([4]; 40 ± 2 °C/75 ± 5% RH) was 99.4 ± 3.2% and the bioavailability [5] was 2.4 ± 1.2%. For the same molecule, the First pass effect [6] was 26.00%, the “AUC0-T Human Subjects Observed” value [7] was 412.2 µg·h/L and the “Cmax Human Subjects Observed” value [7] was 29.7 ng/mL. For the same molecule, the “Tmax Human Subjects Observed” value [7] was 3.0 h, the “AUC0–24 Saliva/Plasma Ratio” value [8, 10] was 4.8 ± 1.7 and the “Cmax Saliva/Plasma Ratio” value [8, 10] was 6.4 ± 1.8. The “AUC0–24 Plasma” value [8, 11] was 278.34 ± 84.90 ng·h/mL, the “Half-Life Plasma” value [8, 11] was 10.38 ± 3.83 h and the “Tmax Plasma” value [8, 11] was 2.16 ± 0.69 h. For the same molecule, the “AUC0–24 Saliva” value [8, 12] was 1302.37 ± 459.28 ng·h/mL, the “Half-Life Saliva” value [8, 12] was 12.37 ± 7.01 h and the “Tmax Saliva” value [8, 12] was 1.56 ± 0.82 h. For the same molecule, the AUC(0-t) ([8]; plasma, 2.6 mg, plasma, 2.6 mg Matr p.o. (8 ATB tablets), read-out: AUC0-T Healthy Volunteers Observed) was 278 ng·h/mL, the Cmax ([8]; plasma, 2.6 mg, plasma, 2.6 mg Matr p.o. (8 ATB tablets), read-out: Cmax Healthy Volunteers Observed) was 25.2 ng/mL and the Tmax ([8]; plasma, 2.6 mg, plasma, 2.6 mg Matr p.o. (8 ATB tablets), read-out: Tmax Healthy Volunteers Observed) was 2.2 h. The AUC(0-t) ([8]; plasma, 2400 mg, average of 8 healthy volunteers, single oral dose 2400 mg ATB, plasma, read-out: AUC0–24 Plasma) was 266 ± 80 ng·h/mL, the Cmax ([8]; plasma, 2400 mg, average of 8 healthy volunteers, single oral dose 2400 mg ATB, plasma, read-out: Cmax Plasma) was 25.2 ± 3.82 ng/mL and the half-life ([8]; plasma, 2400 mg, average of 8 healthy volunteers, single oral dose 2400 mg ATB, plasma, read-out: Half-Life Plasma (converted)) was 600 ± 168 min. It also gave a Tmax ([8]; plasma, 2400 mg, average of 8 healthy volunteers, single oral dose 2400 mg ATB, plasma, read-out: Tmax Plasma) of 2 ± 0.6 h, a Cmax ([8]; plasma, 2400 mg, individual subjects, single oral dose 2400 mg ATB (8 tablets), plasma, read-out: Cmax Plasma) of 22.8 ng/mL and a Kp ([8]; 2400 mg, average of 8 healthy volunteers, single oral dose 2400 mg ATB, read-out: AUC0–24 Saliva/Plasma Ratio) of 4.8 ± 2. The Kp ([8]; 2400 mg, average of 8 healthy volunteers, single oral dose 2400 mg ATB, read-out: Cmax Saliva/Plasma Ratio) was 6.4 ± 1.4, the AUC(0-t) ([8]; saliva, 2400 mg, average of 8 healthy volunteers, single oral dose 2400 mg ATB, saliva, read-out: AUC0–24 Saliva) was 1210 ± 399 ng·h/mL and the Cmax ([8]; saliva, 2400 mg, average of 8 healthy volunteers, single oral dose 2400 mg ATB, saliva, read-out: Cmax Saliva) was 153 ± 53.5 ng/mL. The half-life ([8]; saliva, 2400 mg, average of 8 healthy volunteers, single oral dose 2400 mg ATB, saliva, read-out: Half-Life Saliva (converted)) was 804 ± 414 min, the Tmax ([8]; saliva, 2400 mg, average of 8 healthy volunteers, single oral dose 2400 mg ATB, saliva, read-out: Tmax Saliva) was 1.5 ± 0.9 h and the “AUC0–24 Saliva/Plasma Ratio” value [8, 13] was 8.57 and 4.71 and 2.86 and 4.68 and 4.61 and 4.14 and 4.81 and 3.93. For the same molecule, the “Cmax Saliva/Plasma Ratio” value [8, 13] was 6.73 and 5.60 and 3.26 and 5.12 and 7.05 and 7.41 and 7.27 and 9.08, the “AUC0–24 Plasma” value [8, 14] was 173.50 ng·h/mL and 240.73 ng·h/mL and 295.05 ng·h/mL and 228.16 ng·h/mL and 408.92 ng·h/mL and 247.39 ng·h/mL and 428.83 ng·h/mL and 231.84 ng·h/mL and the “Cmax Plasma” value [8, 14] was 22.70 ng/mL and 28.06 ng/mL and 23.60 ng/mL and 28.56 ng/mL and 21.28 ng/mL and 31.91 ng/mL and 22.48 ng/mL. For the same molecule, the “Half-Life Plasma” value [8, 14] was 6.99 h and 8.43 h and 15.12 h and 17.06 h and 10.66 h and 9.84 h and 6.29 h and 8.65 h, the “Tmax Plasma” value [8, 14] was 3 h and 3.3 h and 1 h and the “AUC0–24 Saliva” value [8, 15] was 1487.35 ng·h/mL and 1133.48 ng·h/mL and 845.11 ng·h/mL and 1067.94 ng·h/mL and 1884.98 ng·h/mL and 1024.67 ng·h/mL and 2064.14 ng·h/mL and 911.28 ng·h/mL. For the same molecule, the “Cmax Saliva” value [8, 15] was 153.18 ng/mL and 127.11 ng/mL and 91.61 ng/mL and 120.81 ng/mL and 201.34 ng/mL and 157.71 ng/mL and 231.60 ng/mL and 204.07 ng/mL, the “Half-Life Saliva” value [8, 15] was 7.38 h and 9.83 h and 7.59 h and 26.39 h and 18.98 h and 11.13 h and 5.42 h and 12.23 h and the “Tmax Saliva” value [8, 15] was 0.5 h and 1 h and 3 h. The “inter-subject variability of systemic exposure (AUC)” value ([8]; plasma) was 30.1% and the “inter-subject variability of systemic exposure (AUC)” value ([8]; saliva) was 32.8%.

For `CN(C)C(=N)N=C(N)N` [metformin], the Km (OCT1, OCT2 and OCT3) is listed as 0.285 to 3.17 mM and the saliva/plasma concentration ratio [9] is listed as 0.29–0.39.
